This note sets out measurements from patent US9034303B2, “Neuroprotective and neuro-restorative iron chelators and monoamine oxidase inhibitors and uses thereof” (priority 2010, dated 2015).

A value given as a limit tells only on which side of the number the result lay.

Series [1] deals with MAO-B (Mus musculus (Mouse), UniProt Q8BW75). In words: In vivo MAO-B inhibition in mice after a single i.p. injection. The note with it: one hour later. On the procedure:
(§1) For the MAO-inhibition study, mice (6 mice in each group) were injected intraperitoneally (i.p.) with compound 3 at the dosage of 5 or 10 mg/kg; or with M30 at the dosage of 10 mg/kg. Control mice received saline (0.1 mL) i.p. One hour later the mice were killed by cervical dislocation, while striatum and small intestine were removed rapidly and frozen in liquid nitrogen for further analysis. FIGS. 3 and 4 show MAO-A/MAO-B in vivo activity of compound 3 compared to the activity of M30. FIG. 3 presents an MAO inhibition in striatum, and FIG. 4 presents an MAO inhibition in intestine. The percent inhibition was computed based on comparison to control animals.

For series [2], the system named is SHSY-5Y cells. Description: Cytotoxicity in presence and absence of exogenous iron, SH-SY5Y. It is filed as cell-based, human. Here is the method: The potential of compound 3 to be toxic in the presence of free iron was also tested. The iron complexation method was based on the method of Leanderson and Tagesson (Carcinogenesis, 17, 545-550, 1996) with some modifications. Iron (III) was prepared from ferric ammonium citrate (Sigma, F5879) at 80 mM in sterile distilled water. Compound 3 was prepared at a 200 mM concentration in DMSO. Before each experiment, the freshly prepared iron (III) solution was diluted to 0.4 mM in PBS II (PBS containing 0.90 mM Ca^2+ and 0.49 mM Mg^2+). Compound 3 stock solutions were diluted to 2, 0.2, and 0.02 mM with PBS II. Equal volumes of the 0.4 mM iron (III) solution and compound 3 solutions were added together to prepare iron/test article complex solutions containing 1, 0.1, and 0.01 mM compound 3 and 0.2 mM iron (III). The compound 3 DMSO stock solution was diluted in PBS II at 1, 0.1, or 0.01 mM and used as compound 3 control without iron. An equal volume of the 0.4 mM iron (III) solution was diluted in PBS II to prepare a control containing only iron.
The medium was removed from the plated cells (both cell lines) and replaced with fresh medium (90 μL). Iron/compound 3 complex or compound 3 in PBS II without iron was added to cells in triplicate (10 μL) to final compound 3 concentrations of 100, 10, and 1 μM and an iron (III) concentration of 20 μM. Wells containing no cells were used as the background control. PBS II was run as vehicle control. Iron only was run at a final concentration of 20 μM.
Cell viability was determined as described above and cytotoxicity was compared between treatments with and without iron complexation.

Series [3] concerns SHSY-5Y cells. Description: in vitro. The note with it: read-out: LC50 (μM) SHSY-5Y; four hours incubation. Here is the method: (§2) The cytotoxicity of compound 3 was assessed in vitro using two standard cell lines, HepG2, derived from a human hepatocellular carcinoma, and SH-SY5Y, derived from a human neuroblastoma, both in the presence and absence of excess iron.
(§3) HepG2 cells were maintained at ˜5% CO2, 37° C., and 95% relative humidity in minimal essential media (MEM) supplemented with 10% fetal bovine serum plus 0.1 mM non-essential amino acids, 2 mM L-glutamine, and penicillin/streptomycin. SH-SY5Y cells were maintained at ˜5% CO2, 37° C., and 95% relative humidity in a mixture of minimal essential media (MEM) and F12 K media (1:1, v:v) supplemented with 10% fetal bovine serum plus 0.1 mM non-essential amino acids, 2 mM L-glutamine, and penicillin/streptomycin. The cells were subcultured every two to three days and plated in tissue culture treated opaque white 96-well plates at a density of 1×10^4 cells/well and incubated at ˜5% CO2, 37° C., and 95% relative humidity overnight prior to initiation of the assay.
(§4) A series of DMSO stocks of the test article at 100× of the final concentration were diluted 1:100 with fresh culture media (final DMSO concentration was 1%). The media from the plated cells was removed and replaced with 100 μL of media containing test article or tamoxifen with final concentrations ranging between 0.01 to 1000 μM in triplicate. Wells containing no cells were used as background controls. Tamoxifen was used as a known positive control and DMSO alone was used as a vehicle control. The cells were incubated for four hours at ˜5% CO2, 37° C., and 95% relative humidity.
(§5) Cell viability was determined using a commercially available kit to determine ATP levels by luminescence. Briefly, the buffer and lyophilized substrate from the kit were equilibrated to room temperature. The buffer was used to reconstitute the substrate just prior to addition to the wells of the cell plate (100 μL per well). The plate was placed into the Tecan Infinite M200 plate reader, agitated for 10 minutes followed by a 10 minute wait period, then read using an integration time of 0.5 seconds with no attenuation.
(§6) The mean luminescence from the test article treated cells was compared to that treated by DMSO only.

The nature of series [4]: in vitro. The note with it: human. Here is the method:
as §2, §3, §4, §5, §6

The target of series [5] is MAO-A (Mus musculus (Mouse), UniProt Q64133). The class given is in vivo, mice. Here is the method: as §1
MAO-A, sequence (Q64133 whole entry): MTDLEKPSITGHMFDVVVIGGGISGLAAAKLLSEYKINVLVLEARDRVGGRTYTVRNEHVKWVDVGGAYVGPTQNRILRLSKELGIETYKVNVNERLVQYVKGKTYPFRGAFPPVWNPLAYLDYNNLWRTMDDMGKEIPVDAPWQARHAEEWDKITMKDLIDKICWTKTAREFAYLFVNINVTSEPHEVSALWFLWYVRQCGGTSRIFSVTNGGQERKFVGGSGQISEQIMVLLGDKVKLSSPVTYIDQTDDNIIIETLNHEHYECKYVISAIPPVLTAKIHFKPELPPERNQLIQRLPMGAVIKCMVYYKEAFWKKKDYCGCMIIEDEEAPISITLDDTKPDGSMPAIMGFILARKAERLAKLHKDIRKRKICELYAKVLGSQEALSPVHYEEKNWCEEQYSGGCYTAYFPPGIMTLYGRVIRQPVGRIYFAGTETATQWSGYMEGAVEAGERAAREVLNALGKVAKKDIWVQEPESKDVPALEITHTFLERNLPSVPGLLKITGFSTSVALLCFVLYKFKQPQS

MAO-B, sequence (Q8BW75 whole entry): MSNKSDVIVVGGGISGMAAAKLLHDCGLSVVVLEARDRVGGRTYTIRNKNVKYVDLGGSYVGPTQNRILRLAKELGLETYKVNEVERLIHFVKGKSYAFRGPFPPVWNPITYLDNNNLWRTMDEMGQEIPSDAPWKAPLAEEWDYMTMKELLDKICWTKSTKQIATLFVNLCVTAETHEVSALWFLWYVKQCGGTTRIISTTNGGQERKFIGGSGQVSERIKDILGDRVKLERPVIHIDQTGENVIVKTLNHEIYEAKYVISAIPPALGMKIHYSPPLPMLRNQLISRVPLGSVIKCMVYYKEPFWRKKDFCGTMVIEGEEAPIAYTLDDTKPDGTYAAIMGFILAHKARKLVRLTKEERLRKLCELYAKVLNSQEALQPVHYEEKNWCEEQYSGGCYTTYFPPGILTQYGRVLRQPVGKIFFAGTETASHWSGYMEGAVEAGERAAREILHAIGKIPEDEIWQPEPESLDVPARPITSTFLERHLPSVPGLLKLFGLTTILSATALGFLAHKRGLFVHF

In the case of `C#CCN(C)CCc1ccc(O)c2ncccc12` [Compound 3, 5-[2-(methyl-2-propyn-1-ylamino)ethyl]-8-quinolinol], the “MAO-B inhibition in striatum” value in series [1] (5 or 10 mg/kg) is on record as “inhibited in a dose responsive fashion”. Besides, the “MAO-B inhibition in intestine” value in series [1] (small intestine) was “Reduced inhibition in the intestinal tissue versus striatal tissue”. In addition, in series [2] (with exogenous iron (20 μM), compound 1 μM), the SHSY-5Y cells alive is 100%. The “SHSY-5Y cell death (%)” value in series [2] (with iron (20 μM), compound 1 μM) is listed as −1.0%; in series [2] (with iron (20 μM), compound 10 μM), 7.6%; in series [2] (with iron (20 μM), compound 100 μM) it was 90.3%; in series [2] (without iron, compound 1 μM), 2.1%; in series [2] (without iron, compound 10 μM) it was 0.8%; in series [2] (without iron, compound 100 μM), 0.4%. Further, in series [3], the CC50 amounted to 885 µM. The CC50 at 4 h in series [4] is greater than 1000 µM; in series [4] (LC50 (μM) SHSY-5Y, four hours incubation) it was 865 µM. The “MAO-A inhibition in striatum” value in series [5] (mice, single i.p. injection, 5 or 10 mg/kg, one hour later) is listed as “inhibited in a dose responsive fashion”. For the same compound, in series [5] (mice, single i.p. injection, small intestine, one hour later), the “MAO-A inhibition in intestine” value is “Reduced inhibition in the intestinal tissue versus striatal tissue”. Also, the “Penetration of brain tissue” value in series [5] (mouse, in vivo, ip) is reported as “able to penetrate brain tissue”.
